Test results published in PubChem BioAssay (NCI).
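Method: 48-hour compound exposure of cells in 96-well plates, five concentrations, linear interpolation of endpoints. TGI is the concentration that stops growth completely.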

Experiments:
Assay in all cases: NCI-60 cell line screen, 48 h
COLO 205 colon = system: COLO 205 colon
KM12 colon = system: KM12 colon
MDA-MB-231 breast = system: MDA-MB-231 breast
SK-MEL-2 melanoma = system: SK-MEL-2 melanoma
NCI-H226 lung = system: NCI-H226 lung
HOP-92 NSCLC = system: HOP-92 NSCLC
786-0 renal = system: 786-0 renal
MALME-3M melanoma = system: MALME-3M melanoma
HS 578T breast = system: HS 578T breast
EKVX NSCLC = system: EKVX NSCLC
MCF7 breast = system: MCF7 breast
OVCAR-3 ovarian = system: OVCAR-3 ovarian
OVCAR-8 ovarian = system: OVCAR-8 ovarian
MDA-MB-435 = system: MDA-MB-435
HCT-116 colon = system: HCT-116 colon
SR leukemia = system: SR leukemia
HCT-15 colon = system: HCT-15 colon
SK-OV-3 ovarian = system: SK-OV-3 ovarian
HT29 colon = system: HT29 colon
U251 CNS = system: U251 CNS
UACC-62 melanoma = system: UACC-62 melanoma
ACHN renal = system: ACHN renal
HOP-62 NSCLC = system: HOP-62 NSCLC
A549 NSCLC = system: A549 NSCLC
NCI-H23 lung = system: NCI-H23 lung
SF-295 CNS = system: SF-295 CNS
NCI-H522 lung = system: NCI-H522 lung
SK-MEL-28 melanoma = system: SK-MEL-28 melanoma
NCI/ADR-RES ovarian = system: NCI/ADR-RES ovarian
OVCAR-4 ovarian = system: OVCAR-4 ovarian
M14 melanoma = system: M14 melanoma
UACC-257 melanoma = system: UACC-257 melanoma
TK-10 renal = system: TK-10 renal
RXF 393 renal = system: RXF 393 renal
OVCAR-5 ovarian = system: OVCAR-5 ovarian
SF-268 CNS = system: SF-268 CNS
SN12C renal = system: SN12C renal
BT-549 breast = system: BT-549 breast
CAKI-1 renal = system: CAKI-1 renal
DU-145 prostate = system: DU-145 prostate
SF-539 CNS = system: SF-539 CNS
IGROV1 ovarian = system: IGROV1 ovarian
K-562 leukemia = system: K-562 leukemia
RPMI-8226 leukemia = system: RPMI-8226 leukemia
LOX IMVI melanoma = system: LOX IMVI melanoma
SNB-75 CNS = system: SNB-75 CNS
MDA-N = system: MDA-N
MOLT-4 leukemia = system: MOLT-4 leukemia
SNB-19 CNS = system: SNB-19 CNS
CCRF-CEM leukemia = system: CCRF-CEM leukemia
SW-620 colon = system: SW-620 colon
HCC-2998 colon = system: HCC-2998 colon
PC-3 prostate = system: PC-3 prostate
T-47D breast = system: T-47D breast
UO-31 renal = system: UO-31 renal
NCI-H460 lung = system: NCI-H460 lung
SK-MEL-5 melanoma = system: SK-MEL-5 melanoma
A498 renal = system: A498 renal
HL-60(TB) leukemia = system: HL-60(TB) leukemia

For COC(=O)CNC(=O)c1cc(C)cc2c1Oc1c(cc(C)cc1C(=O)NCC(=O)OC)S2, the TGI (COLO 205 colon) was 70.9 µM, the TGI (KM12 colon) was > 100 µM and the TGI (MDA-MB-231 breast) was > 100 µM. The TGI (SK-MEL-2 melanoma) was > 100 µM, the TGI (NCI-H226 lung) was > 100 µM and the TGI (HOP-92 NSCLC) was 57.2 µM. For the same compound, the TGI (786-0 renal) was > 100 µM, the TGI (MALME-3M melanoma) was 40.7 µM and the TGI (HS 578T breast) was > 100 µM. For the same compound, the TGI (EKVX NSCLC) was > 100 µM, the TGI (MCF7 breast) was > 100 µM and the TGI (OVCAR-3 ovarian) was > 100 µM. For the same compound, the TGI (OVCAR-8 ovarian) was > 100 µM, the TGI (MDA-MB-435) was > 100 µM and the TGI (HCT-116 colon) was > 100 µM. For the same compound, the TGI (SR leukemia) was > 100 µM, the TGI (HCT-15 colon) was > 100 µM and the TGI (SK-OV-3 ovarian) was > 100 µM. The TGI (HT29 colon) was > 100 µM, the TGI (U251 CNS) was > 100 µM and the TGI (UACC-62 melanoma) was > 100 µM. For the same compound, the TGI (ACHN renal) was 58.4 µM, the TGI (HOP-62 NSCLC) was > 100 µM and the TGI (A549 NSCLC) was > 100 µM. For the same compound, the TGI (NCI-H23 lung) was > 100 µM, the TGI (SF-295 CNS) was > 100 µM and the TGI (NCI-H522 lung) was > 100 µM. The TGI (SK-MEL-28 melanoma) was > 100 µM, the TGI (NCI/ADR-RES ovarian) was > 100 µM and the TGI (OVCAR-4 ovarian) was > 100 µM. For the same compound, the TGI (M14 melanoma) was > 100 µM, the TGI (UACC-257 melanoma) was > 100 µM and the TGI (TK-10 renal) was > 100 µM. The TGI (RXF 393 renal) was 69.4 µM, the TGI (OVCAR-5 ovarian) was > 100 µM and the TGI (SF-268 CNS) was > 100 µM. The TGI (SN12C renal) was > 100 µM, the TGI (BT-549 breast) was > 100 µM and the TGI (CAKI-1 renal) was > 100 µM. For the same compound, the TGI (DU-145 prostate) was > 100 µM, the TGI (SF-539 CNS) was 43.7 µM and the TGI (IGROV1 ovarian) was > 100 µM. For the same compound, the TGI (K-562 leukemia) was > 100 µM, the TGI (RPMI-8226 leukemia) was > 100 µM and the TGI (LOX IMVI melanoma) was > 100 µM. For the same compound, the TGI (SNB-75 CNS) was > 100 µM, the TGI (MDA-N) was > 100 µM and the TGI (MOLT-4 leukemia) was > 100 µM. For the same compound, the TGI (SNB-19 CNS) was > 100 µM, the TGI (CCRF-CEM leukemia) was > 100 µM and the TGI (SW-620 colon) was > 100 µM. The TGI (HCC-2998 colon) was > 100 µM, the TGI (PC-3 prostate) was > 100 µM and the TGI (T-47D breast) was > 100 µM.

For CC(NC(=O)C(CC(=O)OCc1ccccc1)NC(=O)OCc1ccccc1)c1ccccc1 (stereo not drawn), the TGI (COLO 205 colon) was > 100 µM, the TGI (KM12 colon) was > 100 µM and the TGI (MDA-MB-231 breast) was > 100 µM. For the same compound, the TGI (SK-MEL-2 melanoma) was > 100 µM, the TGI (NCI-H226 lung) was > 100 µM and the TGI (786-0 renal) was > 100 µM. The TGI (MALME-3M melanoma) was > 100 µM, the TGI (HS 578T breast) was > 100 µM and the TGI (EKVX NSCLC) was > 100 µM. For the same compound, the TGI (UO-31 renal) was > 100 µM, the TGI (MCF7 breast) was > 100 µM and the TGI (OVCAR-3 ovarian) was > 100 µM. The TGI (OVCAR-8 ovarian) was > 100 µM, the TGI (MDA-MB-435) was > 100 µM and the TGI (SR leukemia) was > 100 µM. The TGI (HCT-15 colon) was > 100 µM, the TGI (SK-OV-3 ovarian) was > 100 µM and the TGI (HT29 colon) was > 100 µM. For the same compound, the TGI (U251 CNS) was > 100 µM, the TGI (UACC-62 melanoma) was > 100 µM and the TGI (ACHN renal) was > 100 µM. For the same compound, the TGI (HOP-62 NSCLC) was > 100 µM, the TGI (A549 NSCLC) was > 100 µM and the TGI (NCI-H23 lung) was > 100 µM. The TGI (SF-295 CNS) was > 100 µM, the TGI (NCI-H522 lung) was > 100 µM and the TGI (SK-MEL-28 melanoma) was > 100 µM. The TGI (NCI/ADR-RES ovarian) was > 100 µM, the TGI (M14 melanoma) was > 100 µM and the TGI (TK-10 renal) was > 100 µM. For the same compound, the TGI (RXF 393 renal) was > 100 µM, the TGI (OVCAR-5 ovarian) was > 100 µM and the TGI (SF-268 CNS) was > 100 µM. For the same compound, the TGI (SN12C renal) was > 100 µM, the TGI (BT-549 breast) was > 100 µM and the TGI (CAKI-1 renal) was > 100 µM. The TGI (DU-145 prostate) was > 100 µM, the TGI (SF-539 CNS) was > 100 µM and the TGI (IGROV1 ovarian) was > 100 µM. The TGI (K-562 leukemia) was > 100 µM, the TGI (RPMI-8226 leukemia) was > 100 µM and the TGI (SNB-75 CNS) was > 100 µM. The TGI (MDA-N) was > 100 µM, the TGI (NCI-H460 lung) was > 100 µM and the TGI (MOLT-4 leukemia) was > 100 µM. For the same compound, the TGI (SNB-19 CNS) was > 100 µM, the TGI (SW-620 colon) was > 100 µM and the TGI (HCC-2998 colon) was > 100 µM. For the same compound, the TGI (PC-3 prostate) was > 100 µM, the TGI (SK-MEL-5 melanoma) was > 100 µM and the TGI (T-47D breast) was > 100 µM.

For COC1(OC)C[C@H](C)[C@@]23O[C@]24C2=CC(=O)C=CC2=N[C@H]3C#C/C=C\C#C[C@]14O, the TGI (COLO 205 colon) was 2.14 µM, the TGI (KM12 colon) was 1.88 µM and the TGI (MDA-MB-231 breast) was 2.06 µM. It also gave a TGI (SK-MEL-2 melanoma) of 3.58 µM, a TGI (NCI-H226 lung) of 2.6 µM and a TGI (HOP-92 NSCLC) of 1.8 µM. For the same compound, the TGI (786-0 renal) was 0.574 µM, the TGI (MALME-3M melanoma) was 2.1 µM and the TGI (HS 578T breast) was 5.09 µM. It also gave a TGI (EKVX NSCLC) of 2.21 µM, a TGI (UO-31 renal) of 1.76 µM and a TGI (MCF7 breast) of 1.4 µM. It also gave a TGI (OVCAR-3 ovarian) of 1.93 µM, a TGI (MDA-MB-435) of 1.7 µM and a TGI (HCT-116 colon) of 1.35 µM. It also gave a TGI (SR leukemia) of 0.4 µM, a TGI (SK-OV-3 ovarian) of 2.89 µM and a TGI (HT29 colon) of 1.25 µM. The TGI (U251 CNS) was 1.82 µM, the TGI (UACC-62 melanoma) was 2.93 µM and the TGI (ACHN renal) was 0.965 µM. For the same compound, the TGI (HOP-62 NSCLC) was 2.25 µM, the TGI (A549 NSCLC) was 1.78 µM and the TGI (NCI-H23 lung) was 2.05 µM. For the same compound, the TGI (SF-295 CNS) was 6.65 µM, the TGI (SK-MEL-28 melanoma) was 2.51 µM and the TGI (NCI/ADR-RES ovarian) was 36.1 µM. For the same compound, the TGI (OVCAR-4 ovarian) was 1.74 µM, the TGI (M14 melanoma) was 1.82 µM and the TGI (UACC-257 melanoma) was 5.16 µM. It also gave a TGI (TK-10 renal) of 2.1 µM, a TGI (RXF 393 renal) of 2.49 µM and a TGI (OVCAR-5 ovarian) of 1.8 µM. It also gave a TGI (SF-268 CNS) of 12.2 µM, a TGI (BT-549 breast) of 2.2 µM and a TGI (CAKI-1 renal) of 1.4 µM. For the same compound, the TGI (DU-145 prostate) was 2.24 µM, the TGI (SF-539 CNS) was 1.93 µM and the TGI (IGROV1 ovarian) was 2.37 µM. The TGI (RPMI-8226 leukemia) was 0.56 µM, the TGI (SNB-75 CNS) was 1.58 µM and the TGI (MDA-N) was 2.28 µM. It also gave a TGI (NCI-H460 lung) of 1.42 µM, a TGI (MOLT-4 leukemia) of 0.106 µM and a TGI (SNB-19 CNS) of 3.02 µM. For the same compound, the TGI (CCRF-CEM leukemia) was 0.811 µM, the TGI (SW-620 colon) was 3.42 µM and the TGI (HCC-2998 colon) was 2.13 µM. It also gave a TGI (A498 renal) of 2.11 µM, a TGI (PC-3 prostate) of 2.09 µM and a TGI (SK-MEL-5 melanoma) of 1.56 µM. It also gave a TGI (T-47D breast) of 2.56 µM and a TGI (HL-60(TB) leukemia) of 0.318 µM.
